Data on seven compounds can be found in PubChem BioAssay AID1259407 (Chemical Carcinogenesis Research Information System (CCRIS), 2018).

Activity calls are given as the source filed them. The rule behind the calls is not given here.

This data set relates to CCRIS mutagenicity, Ames/micronucleus/aberration tests. The experiment in a line: CCRIS mutagenicity studies.
Setting [1] is: Test System: AMES SALMONELLA TYPHIMURIUM, Strain/Indicator: TA98, Metabolic Activation: HAMSTER, LIVER, S-9, AROCLOR 1254 (10%), Method: PREINCUBATION
The mark [2] stands for this setting: Test System: AMES SALMONELLA TYPHIMURIUM, Strain/Indicator: TA98, Metabolic Activation: NONE, Method: PREINCUBATION
The mark [3] stands for this setting: Test System: AMES SALMONELLA TYPHIMURIUM, Strain/Indicator: TA98, Metabolic Activation: RAT, LIVER, S-9, AROCLOR 1254 (10%), Method: PREINCUBATION
The mark [4] stands for this setting: Test System: AMES SALMONELLA TYPHIMURIUM, Strain/Indicator: TA100, Metabolic Activation: HAMSTER, LIVER, S-9, AROCLOR 1254 (10%), Method: PREINCUBATION
The mark [5] stands for this setting: Test System: AMES SALMONELLA TYPHIMURIUM, Strain/Indicator: TA100, Metabolic Activation: NONE, Method: PREINCUBATION
Where [6] appears, read: Test System: AMES SALMONELLA TYPHIMURIUM, Strain/Indicator: TA100, Metabolic Activation: RAT, LIVER, S-9, AROCLOR 1254 (10%), Method: PREINCUBATION
[7] abbreviates: Test System: AMES SALMONELLA TYPHIMURIUM, Strain/Indicator: TA1535, Metabolic Activation: HAMSTER, LIVER, S-9, AROCLOR 1254 (10%), Method: PREINCUBATION
[8] abbreviates: Test System: AMES SALMONELLA TYPHIMURIUM, Strain/Indicator: TA1535, Metabolic Activation: NONE, Method: PREINCUBATION
Setting [9] is: Test System: AMES SALMONELLA TYPHIMURIUM, Strain/Indicator: TA1535, Metabolic Activation: RAT, LIVER, S-9, AROCLOR 1254 (10%), Method: PREINCUBATION
[10] abbreviates: Test System: Mouse lymphoma, Strain/Indicator: L5178Y (tk+/tk-), Metabolic Activation: None, Method: Suspension/plate.
[11] abbreviates: Test System: Mouse lymphoma, Strain/Indicator: L5178Y (tk+/tk-), Metabolic Activation: Rat, Liver, S-9, Aroclor 1254, Method: Suspension/plate.

Consider `CCCCN(CCO)CCCC`, for which the mutagenic call is “inactive; negative” under setting [1]; “inactive; negative” under setting [2]; “inactive; negative” under setting [3]; “inactive; negative” under setting [4]; “inactive; negative” under setting [5]; “inactive; negative” under setting [6]. For the same compound, the mutagenic call reads like this: under setting [7], “inactive; negative”; under setting [8], “inactive; negative”; under setting [9], “inactive; negative”; (Test System: AMES SALMONELLA TYPHIMURIUM, Strain/Indicator: TA1537, Metabolic Activation: HAMSTER, LIVER, S-9, AROCLOR 1254 (10%), Method: PREINCUBATION) “inactive; negative”; (Test System: AMES SALMONELLA TYPHIMURIUM, Strain/Indicator: TA1537, Metabolic Activation: NONE, Method: PREINCUBATION) “inactive; negative”; (Test System: AMES SALMONELLA TYPHIMURIUM, Strain/Indicator: TA1537, Metabolic Activation: RAT, LIVER, S-9, AROCLOR 1254 (10%), Method: PREINCUBATION) “inactive; negative”.

Take `Cc1cc(-c2ccc(N/N=C3/C(=O)c4c(N)cc(S(=O)(=O)O)cc4C=C3S(=O)(=O)O)c(C)c2)ccc1N/N=C1/C(=O)c2c(N)cc(S(=O)(=O)O)cc2C=C1S(=O)(=O)O`: the mutagenic call runs as follows: (Test System: AMES SALMONELLA TYPHIMURIUM, Strain/Indicator: TA98, Metabolic Activation: HAMSTER, LIVER, S-9, Method: PREINCUBATION (PRIVAL METHOD)) “active; positive”; (Test System: AMES SALMONELLA TYPHIMURIUM, Strain/Indicator: TA100, Metabolic Activation: HAMSTER, LIVER, S-9, Method: PREINCUBATION (PRIVAL METHOD)) “active; positive”; (Test System: AMES SALMONELLA TYPHIMURIUM, Strain/Indicator: TA1538, Metabolic Activation: NONE, Method: STANDARD PLATE) “inactive; negative”; (Test System: Ames Salmonella typhimurium, Strain/Indicator: TA98, Metabolic Activation: Rat, Liver, S-9, Sodium phenobarbitone, Method: Preincubation) “inactive; negative, test conducted under both aerobic and anaerobic conditions”; (Test System: Ames Salmonella typhimurium, Strain/Indicator: TA1538, Metabolic Activation: Rat, Liver, S-9, Sodium phenobarbitone, Method: Preincubation) “inactive; negative, test conducted under both aerobic and anaerobic conditions”; under setting [10], “inactive; negative”. Also, under setting [11], the mutagenic call was “inactive; negative”.

In the case of `CCO[Si](OCC)(OCC)OCC`, the mutagenic call (Test System: AMES SALMONELLA TYPHIMURIUM, Strain/Indicator: TA98, Metabolic Activation: HAMSTER, LIVER, S-9, AROCLOR 1254, Method: STANDARD PLATE) is “inactive; negative”; the mutagenic call (Test System: AMES SALMONELLA TYPHIMURIUM, Strain/Indicator: TA98, Metabolic Activation: NONE, Method: STANDARD PLATE) was “inactive; negative”; the mutagenic call (Test System: AMES SALMONELLA TYPHIMURIUM, Strain/Indicator: TA98, Metabolic Activation: RAT, LIVER, S-9, AROCLOR 1254, Method: STANDARD PLATE) was “inactive; negative”; the mutagenic call (Test System: AMES SALMONELLA TYPHIMURIUM, Strain/Indicator: TA100, Metabolic Activation: HAMSTER, LIVER, S-9, AROCLOR 1254, Method: STANDARD PLATE) was “inactive; negative”; the mutagenic call (Test System: AMES SALMONELLA TYPHIMURIUM, Strain/Indicator: TA100, Metabolic Activation: NONE, Method: STANDARD PLATE) is “inactive; negative”; the mutagenic call (Test System: AMES SALMONELLA TYPHIMURIUM, Strain/Indicator: TA100, Metabolic Activation: RAT, LIVER, S-9, AROCLOR 1254, Method: STANDARD PLATE) is “inactive; negative”. Further, the mutagenic call runs as follows: (Test System: AMES SALMONELLA TYPHIMURIUM, Strain/Indicator: TA102, Metabolic Activation: HAMSTER, LIVER, S-9, AROCLOR 1254, Method: STANDARD PLATE) “inactive; negative”; (Test System: AMES SALMONELLA TYPHIMURIUM, Strain/Indicator: TA102, Metabolic Activation: NONE, Method: STANDARD PLATE) “inactive; negative”; (Test System: AMES SALMONELLA TYPHIMURIUM, Strain/Indicator: TA102, Metabolic Activation: RAT, LIVER, S-9, AROCLOR 1254, Method: STANDARD PLATE) “inactive; negative”; (Test System: AMES SALMONELLA TYPHIMURIUM, Strain/Indicator: TA1535, Metabolic Activation: HAMSTER, LIVER, S-9, AROCLOR 1254, Method: STANDARD PLATE) “inactive; negative”; (Test System: AMES SALMONELLA TYPHIMURIUM, Strain/Indicator: TA1535, Metabolic Activation: NONE, Method: STANDARD PLATE) “inactive; negative”; (Test System: AMES SALMONELLA TYPHIMURIUM, Strain/Indicator: TA1535, Metabolic Activation: RAT, LIVER, S-9, AROCLOR 1254, Method: STANDARD PLATE) “inactive; negative”. Moreover, the mutagenic call is “inactive; negative” (Test System: AMES SALMONELLA TYPHIMURIUM, Strain/Indicator: TA1537, Metabolic Activation: HAMSTER, LIVER, S-9, AROCLOR 1254, Method: STANDARD PLATE); “inactive; negative” (Test System: AMES SALMONELLA TYPHIMURIUM, Strain/Indicator: TA1537, Metabolic Activation: NONE, Method: STANDARD PLATE); “inactive; negative” (Test System: AMES SALMONELLA TYPHIMURIUM, Strain/Indicator: TA1537, Metabolic Activation: RAT, LIVER, S-9, AROCLOR 1254, Method: STANDARD PLATE); “inactive; negative. reevaluation of results: negative” (Test System: MOUSE LYMPHOMA, Strain/Indicator: L5178Y (TK+/TK-), Metabolic Activation: NONE, Method: SUSPENSION/PLATE); “inactive; negative” (Test System: Mouse lymphoma, Strain/Indicator: L5178 Y (tk+/tk-), Metabolic Activation: Rat, Liver, S-9, Aroclor 1254, Method: Suspension/plate).

`ClC(Cl)(Cl)CC1CO1` (stereo not given): the mutagenic call under setting [4] is “inactive; negative”; the mutagenic call under setting [5] was “active; positive”; the mutagenic call under setting [6] is “inactive; negative”; the mutagenic call under setting [7] is “inactive; negative”; the mutagenic call under setting [8] was “inactive; negative”; the mutagenic call under setting [9] was “inactive; negative”.

Turning to `O=[N+]([O-])c1ccc(Nc2ccccc2O)c([N+](=O)[O-])c1`, the mutagenic call is, setting by setting: (Test System: AMES SALMONELLA TYPHIMURIUM, Strain/Indicator: TA97, Metabolic Activation: HAMSTER, LIVER, S-9, AROCLOR 1254 (10%), Method: PREINCUBATION) “active; positive”; (Test System: AMES SALMONELLA TYPHIMURIUM, Strain/Indicator: TA97, Metabolic Activation: NONE, Method: PREINCUBATION) “active; positive”; (Test System: AMES SALMONELLA TYPHIMURIUM, Strain/Indicator: TA97, Metabolic Activation: RAT, LIVER, S-9, AROCLOR 1254 (10%), Method: PREINCUBATION) “active; positive”; under setting [1], “active; positive”; under setting [2], “active; positive”; under setting [3], “active; positive”. The mutagenic call reads like this: under setting [4], “active; positive”; under setting [5], “inactive; negative”; under setting [6], “active; positive”; under setting [9], “active; positive”.

Consider `NC(=O)c1nnn(Cc2cc(Cl)c(C(=O)c3ccc(Cl)cc3)c(Cl)c2)c1N`, for which the mutagenic call is, setting by setting: under setting [10], “inactive; inconclusive (previous evaluation negative)”; under setting [11], “inactive; negative”.

As to `Cn1cccc1`, the mutagenic call by setting is: under setting [2], “inactive; negative”; (Test System: AMES SALMONELLA TYPHIMURIUM, Strain/Indicator: TA98, Metabolic Activation: RAT, LIVER, S-9, AROCLOR 1254, Method: PREINCUBATION) “inactive; negative”; under setting [5], “inactive; negative”; (Test System: AMES SALMONELLA TYPHIMURIUM, Strain/Indicator: TA100, Metabolic Activation: RAT, LIVER, S-9, AROCLOR 1254, Method: PREINCUBATION) “inactive; negative”; (Test System: AMES SALMONELLA TYPHIMURIUM, Strain/Indicator: TA102, Metabolic Activation: NONE, Method: PREINCUBATION) “inactive; negative”; (Test System: AMES SALMONELLA TYPHIMURIUM, Strain/Indicator: TA102, Metabolic Activation: RAT, LIVER, S-9, AROCLOR 1254, Method: PREINCUBATION) “inactive; negative”.
